Results published in PMC10432564, “Pharmacological perturbation of the phase-separating protein SMNDC1” (Nature Communications, 2023).

Tests used:
SMNDC1-GFP αTC1 clones = assay: Live imaging of endogenously tagged SMNDC1-GFP; type: cell-based, mouse
Text: Cell lines with fluorescent tags in the endogenous intron loci of different genes were generated as described in Serebrenik et al., and Reicher et al.[39],[74]. Cells were transiently transfected using Avalanche-Everyday Transfection Reagent with three plasmids in parallel: (1) the donor plasmid containing the artificial intron with splice acceptor and splice donor site, the fluorescent tag GFP or RFP, and a possible correction for the frame of the targeted intron, (2) a pX330 backbone containing Cas9 and the gRNA against the donor plasmid, and (3) a plasmid expressing the gRNA against the target intron (see table below). After 3–5 days, GFP- and/or RFP-positive cells were sorted on a SONY SH800 Cell Sorter to get fluorescent single cell clones. Clones were validated for the correct integration of the intron-tag via comparison of live cell images to publicly available or in-house IF images, genomic DNA PCR amplification of the respective loci, and western blots with antibodies against the target protein and/or the fluorescent tag.
Cells were imaged on a PerkinElmer Opera Phenix automated microscope with 500 ms exposure time in either GFP or RFP channel, or on a Zeiss LSM 980 microscope. For condition-independent identification nuclear markers such as Hoechst or DRAQ5^TM were used.
Images were analyzed using the high-content image acquisition and analysis software Harmony® 4.9 developed by PerkinElmer. First, nuclei were identified in the channel of the nuclear marker (DAPI/ Hoechst/ DRAQ5^TM) (with Method C, Common Threshold 0.75, Area > 10 µm^2). After the identification of nuclei, their corresponding cytoplasm was also identified using the respective nucleic acid marker (with Method A, Individual Threshold 0.15). Even though the highest staining of these nuclear markers is obviously detected in the nucleus they still produce a significant staining of the cytoplasm above background. After defining the respective cell areas, mean intensity in the different channels was measured. Finally, spots were identified with the according “Spots” algorithm (with Method A, Relative Spot Intensity > 0.053, Splitting Sensitivity: 1.0).

SMN Tudor domain = SMN Tudor domain (Homo sapiens, UniProt Q16637); assay: AlphaScreen, SMN Tudor domain / sDMA-peptide interaction
Chain of SMN Tudor domain (Q16637 84-147): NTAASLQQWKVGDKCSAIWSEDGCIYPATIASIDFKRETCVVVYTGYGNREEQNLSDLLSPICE
Procedure: To establish an AlphaScreen[50], we coupled donor beads to purified SMNDC1’s (or SMN’s) Tudor domain via a His-Tag and acceptor beads to a biotinylated peptide corresponding to the C-terminal region of the Small nuclear ribonucleoprotein Sm D3 containing four sDMAs (Fig. 4a). […] To identify ideal concentrations for screening, we performed a cross-titration of Tudor domains and binding peptides (Supplementary Fig. 3b).
(§1) The AlphaScreen was conducted in 20 mM sodium phosphate pH 6.5, 50 mM NaCl, Tween 0.01%, BSA 0.1%. Protein concentration was optimized for each batch of purified protein. Optimal concentration was chosen at the lowest concentration with ~80% of maximum signal. […] In the first step, 10 µl of the protein solution containing either SMNDC1’s or SMN’s Tudor domain coupled to a 6xHis-Tag were distributed to 384-well plates pre-spotted with compounds and controls, shaken and incubated for 30 min at RT. Afterwards, 10 µl of peptide solution was added to each well and incubated for 1 h at RT. Finally, 5 µl of a solution containing both Streptavidin Donor and nickel chelate (Ni-NTA) Acceptor beads was added and again incubated for 1 h at RT.

SMNDC1 Tudor domain = molecular target: T1, SMNDC1 Tudor domain (Homo sapiens, UniProt O75940); assay: AlphaScreen, SMNDC1 Tudor domain / sDMA-peptide interaction; details: for effect of the structural modification on potency / IC50: structure-activity relationships around compound 1; for selectivity between SMNDC1 and SMN: AlphaScreen SMNDC1 vs SMN
T1 sequence (O75940 65-128): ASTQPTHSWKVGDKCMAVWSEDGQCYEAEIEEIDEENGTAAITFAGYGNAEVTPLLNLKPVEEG
Text: To pharmacologically perturb SMNDC1 function, we set out to identify small molecule inhibitors of SMNDC1’s Tudor domain based on perturbing its interaction with a dimethylarginine peptide. To establish an AlphaScreen[50], we coupled donor beads to purified SMNDC1’s (or SMN’s) Tudor domain via a His-Tag and acceptor beads to a biotinylated peptide corresponding to the C-terminal region of the Small nuclear ribonucleoprotein Sm D3 containing four sDMAs (Fig. 4a). […] To identify ideal concentrations for screening, we performed a cross-titration of Tudor domains and binding peptides (Supplementary Fig. 3b).
as §1
Category Parameter Description
Assay Type of assay In vitro AlphaScreen / luminescence proximity
Target Tudor domain of SMNDC1
Primary measurement Decrease in luminescence signal reflecting
disruption of heterodimeric complex between
SMNDC1-Tudor domain and a peptide
corresponding to the C-terminus of Small nuclear
ribonucleoprotein Sm D3 containing 4 sDMAs
Key reagents AlphaScreen no-wash assay kit containing
Streptavidin Donor beads and nickel chelate (Ni-
NTA) AlphaScreen Acceptor beads (PerkinElmer
Assay protocol Described in Methods section
Screen Format PerkinElmer OptiPlate-384 well plate
Concentration(s) tested Typically 10 μM (0.1% DMSO)
Plate controls 32 positive control wells (Mitoxantrone, quencher),
32 negative control wells (DMSO)
Reagent/ compound dispensing system Echo 520 Liquid Handler Multidrop™ Combi
Normalization Raw signal was normalized plate-specifically by
correcting row and column-specific mean signals to
the mean signal of the entire plate, each after
removing the highest and lowest 25% of values. Raw
signal was then converted to percent of control
signal, but linear regression to plate-specific mean
signal of DMSO wells (set to 100 percent of control)
and positive control wells (set to 0% of control), after
outlier removal using a Grubbs test.
unspecific quenchers), Secondary screen (with

Row | IC50 (SMN Tudor domain) [nM] | IC50 (SMNDC1 Tudor domain) [nM] | SMILES | further results
1 |  |  | OCCCCCCO [1,6-hexanediol, reference compound] | focal localization of SMNDC1-GFP within the nucleus (SMNDC1-GFP αTC1 clones; live cells, 2.5% or 5%): losing its focal localization within the nucleus
2 | 640 | 770 | O=C(Nc1nc(-c2ccccn2)cs1)c1ccc(S(=O)(=O)N2CCOCC2)cc1 [Fig. 4e] | 
3 | 5800 | 2300 | COc1ccc(Cc2nnc(NC(=O)Cc3cccs3)s2)cc1OC [Fig. 4g] | 
4 | 4000 | 190 | CC1NC(=O)NC1CCCCCC(=O)OCC(=O)c1ccccc1 (centres unmarked) [Fig. 4h] | 
5 | 3900 | 1400 | CCc1ccccc1NC(=O)c1cccc2c1C(=O)N(c1ccc(OC)cc1)C2 [Fig. 4i] | 
6 | 1200 | 1100 | Cc1cc(C)n2c(Nc3ccccc3C)c(-c3ccccn3)nc2n1 [Fig. 4k] | 
7 | > 50000 | > 50000 | CCN(CC)S(=O)(=O)c1ccc(C(=O)Nc2nc(-c3cccnc3)cs2)cc1 [compound 3] | 
8 | 3030 | 9560 | CN(C)S(=O)(=O)c1ccc(C(=O)Nc2nc(-c3ccncc3)cs2)cc1 [compound 4] | 
9 | 1700 | 920 | COc1ccccc1-c1csc(NC(=O)c2ccc(S(=O)(=O)N(C)C)cc2)n1 [compound 5] | 
10 | 29400 | 33700 | Cc1ccc(-c2csc(NC(=O)c3ccc(S(=O)(=O)N4CCCC4)cc3)n2)o1 [compound 6] | 
11 | > 50000 | > 50000 | O=C(Nc1nc(-c2cccs2)cs1)c1ccc(S(=O)(=O)N2CCCC2)cc1 [compound 7] | 
12 | 8240 | 4050 | N#Cc1cccc(C(=O)Nc2nc(-c3ccc[nH]3)cs2)c1 [compound 8] | effect of the structural modification on potency / IC50 (SMNDC1 Tudor domain): some loss of potency
13 | > 50000 | > 50000 | CCOC(=O)c1csc(NC(=O)c2ccc(S(=O)(=O)N(C)C)cc2)n1 [compound 9] | SMNDC1-GFP spots within the nucleus (SMNDC1-GFP αTC1 clones; 50 µM, 12–16 h): not observed; SMNDC1 within the nucleus (nuclear SMNDC1-GFP) (SMNDC1-GFP αTC1 clones; 50 µM, 12–16 h): not observed; effect of the structural modification on potency / IC50 (SMNDC1 Tudor domain): complete loss of activity
14 | 1260 | 450 | Cc1sc(NC(=O)c2ccc(S(=O)(=O)N(C)C)cc2)nc1-c1ccccn1 [compound 10] | effect of the structural modification on potency / IC50 (SMNDC1 Tudor domain): without loss of potency
15 | 3520 | 1400 | CCc1sc(NC(=O)c2ccc(S(=O)(=O)N(C)C)cc2)nc1-c1ccccn1 [compound 11] | 
16 | 3840 | 1370 | CN(C)S(=O)(=O)c1ccc(C(=O)Nc2nc(-c3ccccn3)c(Br)s2)cc1 [compound 12] | 
17 | 5350 | 1780 | Nc1csc(-c2ccccn2)n1 [compound 14] | 
18 | 15200 | > 50000 | Nc1ncc(-c2ccccn2)s1 [compound 15] | selectivity between SMNDC1 and SMN (SMNDC1 Tudor domain): preferentially inhibited SMN over SMNDC1; effect of the structural modification on potency / IC50 (SMNDC1 Tudor domain): significant loss of activity
19 | > 50000 | 20700 | Nc1nc(-c2ccccn2)co1 [compound 16] | drop in potency (SMNDC1 Tudor domain; thiazole replaced with analogous oxazole): 40 fold
20 | 2000 | 1420 | COc1ccc(CCNc2nc(-c3ccccn3)cs2)cc1OC [compound 17] | 
21 | 2550 | 1000 | O=S(=O)(Nc1nc(-c2ccccn2)cs1)c1ccccc1 [compound 18] | 
22 | 13200 | 14500 | N=C(N)Nc1nc(-c2ccccn2)cs1 [compound 19] | 
23 | 2930 | 2120 | O=C(Nc1nc(-c2ccccn2)cs1)C1CC1 [compound 20] | 
24 | 1160 | 1090 | CCn1ccc(C(=O)Nc2nc(-c3ccccn3)cs2)n1 [compound 21] | 
25 | 900 | 470 | Cc1ccc(C(=O)Nc2nc(-c3ccccn3)cs2)o1 [compound 22] | 
26 | 1350 | 810 | Cc1ccnc2nc(C(=O)Nc3nc(-c4ccccn4)cs3)nn12 [compound 24] | 
27 | 9820 | 1470 | CC(C)(C)CNC(=O)c1ccc(C(=O)Nc2nc(-c3ccccn3)cs2)cc1 [compound 25] | selectivity between SMNDC1 and SMN (SMNDC1 Tudor domain): increased selectivity for SMNDC1 over SMN
28 | 3380 | 1100 | O=C(O)c1ccc(C(=O)Nc2nc(-c3ccccn3)cs2)cc1 [compound 26] | 
29 | 1230 | 730 | O=C(Nc1nc(-c2ccccn2)cs1)c1ccc(-n2cnnn2)cc1 [compound 27] | 
30 | 15400 |  | CC(C)(C)OC(=O)NCCNC(=O)c1ccc(C(=O)Nc2nc(-c3ccccn3)cs2)cc1 [compound 28] | effects on SMNDC1 and SRRM2 localization (SMNDC1-GFP αTC1 clones; double-tagged SMNDC1-GFP SRRM2-RFP αTC1-clone, 50/25/12.5/6.25/3.125 µM): could confirm the effects observed for the non-selective compound 1
